“Also recorded” adds a separate entry of the source. Starred links: 1 amine or outer side, 2 acyl side, 3 side chain; linkers in the order of their positions; H or OH if unused. Positions of bridges follow the written chain, without caps; N, C: chain ends. Non-standard residues stand in square brackets, D forms with d. Residues, ends and D or L forms follow the SMILES beside them. Chains are numbered I, II in the order given. Actinocin(9to1) = Cc1c2oc3c(C)ccc(C(=O)[*:1])c3nc-2c(C(=O)[*:2])c(N)c1=O; NMeV = CN[C@H](C(=O)O)C(C)C; Sar = CNCC(=O)O
What was measured:
[1] = system: NIH 3T3 FGF-1 transfectants; test: Heat shock induced FGF-1 and p40 Syn-1 release by FGF-1 transfectants, immunoblot of conditioned media; type: cell-based, murine
Description: Chemical derivatives of amlexanox were tested for their effects on FGF-1 and p40 Syn-1 release by NIH 3T3 FGF-1 transfectants in response to heat shock. Media were conditioned by three 150 mm dishes of NIH3T3 cells stably transfected with FGF-1α (residues 21-154) after exposure to 41.5° C. for 90 min with or without amlexanox or the indicated amlexanox derivative. The media were collected and resolved by 12.5% acrylamide SDS-PAGE under reducing conditions followed by immunoblot analysis for FGF-1 as described herein.
(FIG. 19: Lane 1: media derived from NIH3T3 cell FGF-1 transfectants following heat shock in the absence of any drug; Lanes 2 through 4: media derived from NIH3T3 cell FGF-1 transfectants following heat shock in the presence of 1×10^−6 M, 1×10^−5 M, 1×10^−4 M, A673 (amlexanox) respectively; Lanes 5 through 7: media derived from NIH3T3 cell FGF-1 transfectants following heat shock in the presence of 1×10^−6 M, 1×10^−5 M, 1×10^−4 M AA617 respectively; Lanes 8 through 10: media derived from NIH3T3 cell FGF-1 transfectants following heat shock in the presence of 1×10^−6 M, 1×10^−5 M, 1×10^−4 M AA648 respectively; Lanes 11 through 13: media derived from NIH3T3 cell FGF-1 transfectants following heat shock in the presence of 1×10^−6 M, 1×10^−5 M, 1×10^−4 M, AA777 respectively; Lane 14: media derived from NIH3T3 cell FGF-1 transfectants maintained at 37° C. for 90 min; Lane 15, 50 ng of recombinant human FGF-1α. The structures of amlexanox (AA673) and its derivatives are also shown.

[2] = system: NIH-3T3 FGF-1-β-gal:p40 Syn-1 co-transfectants; test: p40 Syn-1 release from p40 Syn-1 co-transfectants at 37° C. or after heat shock, Syn-1 immunoblot; type: cell-based, murine; conditions: FIG. 18
Description: Amlexanox was also tested for an effect on the heat shock response of NIH-3T3 FGF-1-β-gal:p40 Syn-1 co-transfectants described above in Example 11. Media were conditioned by two 150 mm dishes of NIH3T3 cells stably co-transfected with FGF-1:β-Gal and rat p40 Syn-1 after exposure to temperature stress (41.5° C., 90 min) with or without treatment. The media were collected and resolved by 10% acrylamide SDS-PAGE under reducing conditions followed by immunoblot analysis for Syn-1 as described herein and in the cited references.
(FIG. 18: Lane 1: media derived from NIH3T3 cell FGF-1:β-Gal and p40 Syn1 co-transfectants maintained at 37° C. for 90 min. Lane 2: media derived from NIH3T3 cell FGF-1:β-gal and p40 Syn-1 co-transfectants following heat shock. Lanes 3 and 4: media derived from NIH3T3 cell FGF-1:β-gal and p40 Syn-1 co-transfectants maintained at 37° C. in the presence of 5×10^−5M, and […] AA673 (amlexanox) respectively. Lane 5: media derived from NIH3T3 cell FGF-1:β-gal and p40 Syn-1 co-transfectants following heat shock in the presence of 3×10^−4M, AA673. Lane 6: 50 ng of recombinant rat p40 Syn-1.)

[3] = system: NIH 3T3 FGF-1-β-gal:p65 Syn-1 co-transfectants; test: Heat shock induced release of FGF-1-β-gal and Syn-1 from co-transfectants, immunoblot of heparin binding fraction of conditioned medium; type: cell-based, murine; conditions: heat shock 41.5° C. for 90 min; concentration dependent; FIG. 17
Description: Stable NIH 3T3 FGF-1:β-gal transfectants were co-transfected with either p65 Syn-1, p65(Δ120-214) or p40 and maintained in Dulbecco's modified Eagle's medium (DMEM, GIBCO-BRL, Grand Island, N.Y.) containing 10% (v/v) bovine calf serum (BCS, Hyclone, Logan, Utah), 1× antibiotic-antimycotic (GIBCO-BRL) and 200 μg/ml G418 (GIBCO-BRL) and 250 μg/ml hygromycin (Boehringer Mannheim, Indianapolis, Ind.) on sterile tissue culture dishes coated with 10 μg/cm^2 human fibronectin prepared from human plasma by affinity adsorption to a column of immobilized type I collagen by methods well known in the art. […] Nat. Acad. Sci. USA 89:10691, 1992). […]
Following heat shock, conditioned media were collected, filtered using 0.2 μm filters (Millipore, Bedfore, Mass. ) according to the supplier's recommendations, and activated with 0.1% (w/v) dithiothreitol (DTT, Sigma, St. Louis, Mo.) for 2 h at 37° C. […] Aliquots of the concentrated eluates were analyzed by 10% sodium dodecylsulfate polyacrylamide gel electrophoresis (SDS-PAGE) as described (Jackson et al., J. Biol Chem. 270:33, 1995). […]
In this Example, the effects of members of the amlexanox family of pharmacologic agents known to bind to S100A13 (Oyama et al., Biochem. Biophys. Res. Commun. 240:341, 1997) were evaluated in cell based assay systems for export of FGF1:Syn-1 complexes in vitro. […]

[4] = system: 3T3 cell line transfected with a chimeric FGF-1 construct having a functional signal sequence; test: Secretion by 3T3 cell line transfected with chimeric FGF-1 construct having a functional signal sequence (classical ER-Golgi pathway); type: cell-based; conditions: not shown
Source text: In a concentration dependent fashion, amlexanox inhibited the release of both FGF-1-β-gal and Syn-1 from NIH 3T3 FGF-1-β-gal:p65 Syn-1 co-transfectants in response to heat shock (FIG. 17). […] A 3T3 cell line transfected with a chimeric FGF-1 construct having a functional signal sequence for secretion via the classical ER-Golgi protein secretory pathway (Forough et al., J. Biol. Chem. 268:2960, 1993) was unaffected by amlexanox by several phenotypic criteria, including secretory activity (not shown).

[5] = system: FGF-1-NIH 3T3 transfectants; conditions: agent in the media of cultured cells exposed to heat shock; cited from earlier work
[6] = system: NIH 3T3 FGF-1-β-gal:p65 Syn-1 co-transfectants; test: Effects of pharmacologic inhibitors on heat shock induced release of p40; type: cell-based, murine; conditions: heat shock 42° C. for 100 min
Description: Stable NIH 3T3 FGF-1:β-gal transfectants were co-transfected with either p65 Syn-1, p65(Δ120-214) or p40 and maintained in Dulbecco's modified Eagle's medium (DMEM, GIBCO-BRL, Grand Island, N.Y.) containing 10% (v/v) bovine calf serum (BCS, Hyclone, Logan, Utah), 1× antibiotic-antimycotic (GIBCO-BRL) and 200 μg/ml G418 (GIBCO-BRL) and 250 μg/ml hygromycin (Boehringer Mannheim, Indianapolis, Ind.) on sterile tissue culture dishes coated with 10 μg/cm^2 human fibronectin prepared from human plasma by affinity adsorption to a column of immobilized type I collagen by methods well known in the art. Confluent monolayers of co-transfectants were rinsed with DMEM containing 4 U/ml heparin (Upjohn, Kalamazoo, Mich.) and subjected to heat shock (42° C. for 100 min) in DMEM containing 4 U/ml heparin and 0.5% BCS as described (Jackson et al., Proc. Nat. Acad. Sci. USA 89:10691, 1992). For each Syn-1 construct, three independent co-transfectant clones were tested.
Following heat shock, conditioned media were collected, filtered using 0.2 μm filters (Millipore, Bedfore, Mass. ) according to the supplier's recommendations, and activated with 0.1% (w/v) dithiothreitol (DTT, Sigma, St. Louis, Mo.) for 2 h at 37° C. (Jackson et al., J. Biol. Chem. 270:33, 1995). Conditioned media were then passed over a column of heparin-Sepharose™ CL-6B (Pharmacia Biotech, Piscataway, N.J.) equilibrated and eluted with 50 mM Tris pH 7.4 containing 10 mM EDTA (TE buffer, TEB). Following TEB washing, the column was eluted with 1.5 M NaCl in TEB and the eluate collected and concentrated using a Centricon™ 10 concentrator (Amicon, Inc., Beverly, Mass.) according to the manufacturer's instructions. Aliquots of the concentrated eluates were analyzed by 10% sodium dodecylsulfate polyacrylamide gel electrophoresis (SDS-PAGE) as described (Jackson et al., J. Biol Chem. 270:33, 1995). Electrophoretically separated samples were further characterized by immunoblot analysis as described (Jackson et al., Proc. Nat. Acad. Sci. USA 89:10691, 1992). […]

[7] = molecular target: the molecule itself; test: Cu2+ oxidation, non-reduced SDS-PAGE
Description: Purified FGF-1 and p40 Syn-1 were incubated with, and without, Cu²⁺ for 10 min. and resolved on two non-reduced SDS-PAGE gels (A and B), as described by Maciag et al., Recent Prog. Horm. Res. 49:105-123 (1993). The systems were identical except gel 5B was immunoblotted with FGF-1 antibody, whereas gel 5A was not.
However, when FGF-1 and p40 Syn-1 were added together, non-reduced SDS-PAGE was able to resolve a unique component with an apparent Mᵣ˜66,000 (FIG. 6A). To determine whether this band contained FGF-1, this experiment was repeated and analyzed by FGF-1 immunoblot analysis.

[8] = 41.5° C. for 90 min, 1×10^−6 M, 1×10^−5 M, 1×10^−4 M, FIG. 19

Molecule: CC(C)c1ccc2oc3nc(N)c(C(=O)O)cc3c(=O)c2c1 [amlexanox]
- FGF-1 release in response to temperature stress [1, 8]: inhibition
- p40 Syn-1 release in response to temperature stress [1, 8]: inhibition
- FGF-1 release in response to heat shock ([1]; NIH 3T3 cell line stably transfected with FGF-1 instead of FGF-1-β-gal, not shown): inhibited FGF-1 release
- constitutive release of p40 Syn-1 ([2]; 37° C., 5×10^−5M and 3×10^−1M AA673): no effect
- enhanced p40 export in response to heat shock ([2]; heat shock 41.5° C., 90 min, 3×10^−4M AA673): did inhibit
- release of FGF-1-β-gal in response to heat shock [3]: inhibited; also recorded: inhibition
- release of Syn-1 in response to heat shock [3]: inhibited; also recorded: inhibition
- effect on phenotypic criteria, including secretory activity [4]: unaffected

Molecule: Cc1c2oc3c(C)ccc(C(=O)N[C@@H]4C(=O)N[C@H](C(C)C)C(=O)N5CCC[C@H]5C(=O)N(C)CC(=O)N(C)[C@@H](C(C)C)C(=O)O[C@@H]4C)c3nc-2c(C(=O)N[C@@H]2C(=O)N[C@H](C(C)C)C(=O)N3CCC[C@H]3C(=O)N(C)CC(=O)N(C)[C@@H](C(C)C)C(=O)O[C@@H]2C)c(N)c1=O [actinomycin D] (I: T[dV]P[Sar][NMeV] / II: T[dV]P[Sar][NMeV]; ester I:1-I:C, II:1-II:C; linker I:N-II:N via Actinocin(9to1))
- release of latent FGF-1 [5]: inhibited
- heat shock induced release of p40 [6]: inhibited

Molecule: C[C@@H]1C[C@@H]([C@H](O)CC2CC(=O)NC(=O)C2)C(=O)[C@@H](C)C1 [cycloheximide]
- release of latent FGF-1 [5]: inhibited
- heat shock induced release of p40 [6]: inhibited

Molecule: C[C@H]1CCC/C=C/[C@@H]2C[C@H](O)C[C@H]2[C@H](O)/C=C/C(=O)O1 [brefeldin A]
- heat shock induced release of p40 [6]: unaffected

B1: recombinant human p40 Syn-1 (other, UniProt P21579 104-422, looked up)
chain: MKDVKDLGKTMKDQALKDDDAETGLTDGEEKEEPKEEEKLGKLQYSLDYDFQNNQLLVGIIQAAELPALDMGGTSDPYVKVFLLPDKKKKFETKVHRKTLNPVFNEQFTFKVPYSELGGKTLVMAVYDFDRFSKHDIIGEFKVPMNTVDFGHVTEEWRDLQSAEKEEQEKLGDICFSLRYVPTAGKLTVVILEAKNLKKMDVGGLSDPYVKIHLMQNGKRLKKKKTTIKKNTLNPYYNESFSFEVPFEQIQKVQVVVTVLDYDKIGKNDAIGKVFVGYNSTGAELRHWSDMLANPRRPIAQWHTLQVEEEVDAMLAVKK
notes: domain: p40 form of Syn-1; also called p45; p40/45
- binding result [7]: no binding
